According to ChEMBL document CHEMBL3259679, “Synthesis of novel tricyclic chromenone-based inhibitors of IRE-1 RNase activity” (J Med Chem, 2014):
pIC50: −log10 of the molar value. Active and inactive are the calls of the source. No cut-off for these calls is given here.

Experiments:
[1] = Upregulation of IRE-1 expression in human Mino cells at 20 uM after 24 hrs by immunoblotting analysis; format: functional, cell-based
[2] = Upregulation of IRE-1 expression in human Jeko cells at 20 uM after 24 hrs by immunoblotting analysis; format: functional, cell-based; conditions: JeKo-1
JeKo-1 [3] = conditions: Homo sapiens, 20 uM
Mino [4] = conditions: Homo sapiens, 20 uM
B-cell [5] = experiment: Inhibition of XBP-1s expression in LPS-stimulated wild-type mouse B lymphocytes at 20 uM after 24 hrs by Western blotting analysis
[6] = Growth inhibition of human Mino cells after 48 hrs by XTT assay; format: functional
JeKo-1 [7] = experiment: Induction of apoptosis in human Jeko cells assessed as PARP cleavage at 50 uM after 72 hrs by immunoblotting analysis; format: functional, cell-based
[8] = Growth inhibition of human Jeko cells after 48 hrs by XTT assay; format: functional, JeKo-1
Mino [9] = experiment: Induction of apoptosis in human Mino cells assessed as PARP cleavage at 50 uM after 72 hrs by immunoblotting analysis; format: functional, cell-based
B-cell [10] = conditions: Mus musculus, 20 uM
[11] = Drug degradation after 12 hrs by LC-MS analysis; format: physicochemical
[12] = target: Serine/threonine-protein kinase/endoribonuclease IRE1 (Homo sapiens, UniProt O75460); experiment: Inhibition of human recombinant puritin-His-tagged IRE-1 RNase expressed in SF21 cells using XBP-1 RNA stem loop as substrate incubated for 30 mins prior to substrate addition measured after 2 hrs by FRET-suppression assay
JeKo-1 [13] = experiment: cells; conditions: Homo sapiens, JeKo-1, 24 h

Serine/threonine-protein kinase/endoribonuclease IRE1, sequence (O75460 whole entry): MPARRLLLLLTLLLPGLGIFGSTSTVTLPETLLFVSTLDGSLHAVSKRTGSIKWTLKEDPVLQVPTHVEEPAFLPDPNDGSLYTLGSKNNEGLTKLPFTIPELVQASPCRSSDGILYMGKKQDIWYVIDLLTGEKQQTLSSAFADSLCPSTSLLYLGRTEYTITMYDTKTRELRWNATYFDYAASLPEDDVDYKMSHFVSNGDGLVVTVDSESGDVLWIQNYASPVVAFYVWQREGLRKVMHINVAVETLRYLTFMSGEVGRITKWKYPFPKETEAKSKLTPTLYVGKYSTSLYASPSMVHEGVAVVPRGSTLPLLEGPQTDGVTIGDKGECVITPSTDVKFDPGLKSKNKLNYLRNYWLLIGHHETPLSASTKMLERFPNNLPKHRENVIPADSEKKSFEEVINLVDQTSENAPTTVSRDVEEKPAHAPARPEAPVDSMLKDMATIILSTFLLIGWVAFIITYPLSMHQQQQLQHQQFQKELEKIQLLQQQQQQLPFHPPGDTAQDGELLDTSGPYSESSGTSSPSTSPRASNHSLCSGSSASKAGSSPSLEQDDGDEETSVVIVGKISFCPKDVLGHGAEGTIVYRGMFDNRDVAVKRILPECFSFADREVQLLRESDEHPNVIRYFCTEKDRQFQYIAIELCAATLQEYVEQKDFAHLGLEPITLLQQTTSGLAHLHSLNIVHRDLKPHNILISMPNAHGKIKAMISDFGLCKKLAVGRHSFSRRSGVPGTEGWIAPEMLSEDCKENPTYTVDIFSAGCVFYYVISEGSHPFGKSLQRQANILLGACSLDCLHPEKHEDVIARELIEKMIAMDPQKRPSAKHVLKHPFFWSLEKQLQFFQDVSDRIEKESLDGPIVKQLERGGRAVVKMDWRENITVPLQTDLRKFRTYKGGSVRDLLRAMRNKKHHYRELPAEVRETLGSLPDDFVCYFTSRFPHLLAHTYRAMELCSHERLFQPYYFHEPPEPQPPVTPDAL

SMILES | Activity [1] | Activity [2] | inhibition (JeKo-1 [3]) | inhibition (Mino [4]) | inhibition (B-cell [5]) | inhibition (B-cell [10]) | other results
C=CCOC(=O)N1CCc2c(c(=O)oc3c(C=O)c(O)ccc23)C1 | Active | Active | Active | Active | Active | – | –
CN1CCc2c(c(=O)oc3c(C=O)c(O)ccc23)C1 | Active | Active | Active | Active | – | Active | GI [6]: 55 µM; Activity (JeKo-1 [7]): Active; GI [8]: 66 µM; Activity (Mino [9]): Active
C=CCOC(=O)N1CCc2c(c(=O)oc3c(C(=O)O)c(O)ccc23)C1 | – | – | – | – | – | inactive | –
C=CCOC(=O)N1CCc2c(c(=O)oc3c(C(=O)OC)c(O)ccc23)C1 | – | – | – | – | – | inactive | –
C=CCOC(=O)N1CCc2c(c(=O)oc3c(C4OCCCO4)c(O)ccc23)C1 | – | – | – | – | Active | – | Stability [11]: Stable
C=CCOC(=O)N1CCc2c(c(=O)oc3c(C=O)c(OCc4ccccc4)ccc23)C1 | – | – | – | – | – | – | pIC50 [12]: < 4.70
Cc1cc(=O)oc2c(C=O)c(O)ccc12 | – | – | – | – | Active | – | pIC50 (JeKo-1 [13]): 5.80
C=CCOC(=O)N1CCc2c(c(=O)oc3c(/C=C/C(=O)OCC)c(O)ccc23)C1 | – | – | – | – | – | inactive | –
CC(=O)N1CCc2c(c(=O)oc3c(C=O)c(O)ccc23)C1 | Active | Active | Active | Active | – | Active | –
